Values quoted from earlier work in patent US8067367B2, “Methods of increasing platelet and hematopoietic stem cell production” (Janssen Pharmaceutica, N.V., priority 2002, dated 2011).

What was measured:
CD34+ stem cells = details: rhTPO with G-CSF; pilot study
CD34+ cells = details: normal volunteers
[1] = tested on: HSCs in adult bone marrow; details: exogenously added TPO; after bone marrow transplantation
[2] = single dose of TPO, cancer patients

Substance: Thrombopoietin [TPO]
- mobilization and apheresis yields of CD34+ stem cells in response to G-CSF (CD34+ stem cells): able to enhance the mobilization and apheresis yields of CD34+ stem cells
- CD34+ cells in the peripheral blood (CD34+ cells): 16×10^3 cells/ml
- increase in circulating CD34+ cells (circulating CD34+ cells; 3-7 days after a single dose of TPO, cancer patients with otherwise normal hematopoiesis): 6 fold
- increase of committed megakaryocytic subfraction (CD34+CD41+CD14−) (circulating CD34+ cells; [2]): ~15 fold
- increase of stem cell enriched subfraction (CD34+ Thy+Lin−) (circulating CD34+ cells; [2]): ~9 fold
- HSC expansion defect in tpo−/− mice [1]: rescued this defect
